{
  "source": "patent US8703066B2",
  "about": "“Sterilization system and method” (Noxilizer, Inc., priority 2004, dated 2014)",
  "key": {"[1]": {"tested_on": "bacterial cocktail containing B. subtilis, S. marcesens, and S. epidermides", "experiment": "Sterilization of medical materials (tubing, needle)", "type": "cell-based", "settings": "15 min sterilization cycle, about 10^8 total CFU/ml", "experimental": "An additional study is performed to test medically relevant materials such as needles and plastic tubing. Teflon (⅛′ ID), polyethylene (1.77 mm ID), vinyl (0.5 mm ID) tubing and a 30 ga. disposable needle are dipped in a bacterial cocktail containing B. subtilis, S. marcesens, and S. epidermides at about 10^8 total CFU/ml The samples are placed in the sterilization chamber and sealed. In each case, the lumen of the tubing or contained at least some visually confirmed inoculum. […] The controls for each material reached at least 10^6 total CFU/ml in 24 hrs as determined by ABS595 standardization curves."}, "[2]": {"tested_on": "Klebsiella pneumoniae (str 21991)", "experiment": "Pressure vessel sterilization of contaminated stainless steel coupons with NO gas", "type": "cell-based", "settings": "five minute sterilization cycle; pure NO at atmospheric pressure; stainless steel coupons dipped in at least 10^8 CFU/ml", "source_text": "(§1) A glass pressure vessel is connected to a scrubbed NO gas tank source. The pressure vessel is purged five times with Argon gas to eliminate atmospheric oxygen (preventing formation of NO2.) and an additional three purges of NO are used to ensure a pure NO atmosphere and consistent results of bactericidal activity. To test the sterilization method: Bacillus subtilis var niger 9372 is used (after obtaining >80% endospore formation; a standard for ethylene oxide and autoclave test sterilization), as well as organisms commonly found on the epidermis: Staphylococcus aureus (str 21769) and Staphylococcus epidermides (str 21977), and the enteric organisms: Klebsiella pneumoniae (str 21991) and Serratia marcesens (str 21140). This particular Serratia strain has been found in previous studies to be one of the most resistant bacteria to the bactericidal effects of NO in culture (Raulli et al., 2002).\n(§2) The organisms are cultured overnight in BHI. The cultures contained at least 10^8 CFU/ml based on standardized ABS595 curves for each organism. Stainless steel coupons, 3×1 cm, are dipped in the cultures, and either dried in ambient air first or placed in the pressure vessel still wet from the culture dip. The coupons are exposed to NO gas at atmospheric pressure for decreasing time periods starting with 45 min and working back to 5 min. Control samples are handled identically, except the pressure vessel was gassed with nitrogen.\n(§3) The sealed vessel is carefully opened in a laminar flow hood after all the NO had been purged with Argon. The samples are removed aseptically with sterilized tongs and placed in culture tubes containing sterile BHI media. The samples are incubated in a vigorously shaking waterbath at 35° C. The samples are observed (digitally photographed) 24 hrs later, placed back in the waterbath and are measured for absorbance 72 hrs later. The controls had >10^8 CFU/ml after 24 hrs."}, "[3]": {"tested_on": "Staphylococcus aureus (str 21769)", "experiment": "Pressure vessel sterilization of contaminated stainless steel coupons with NO gas", "type": "cell-based", "settings": "five minute sterilization cycle; pure NO at atmospheric pressure; stainless steel coupons dipped in at least 10^8 CFU/ml", "source_text": "as §1, §2, §3"}, "[4]": {"tested_on": "Serratia marcesens (str 21140)", "experiment": "Pressure vessel sterilization of contaminated stainless steel coupons with NO gas", "type": "cell-based", "settings": "five minute sterilization cycle; pure NO at atmospheric pressure; stainless steel coupons dipped in at least 10^8 CFU/ml", "source_text": "as §1, §2, §3"}, "[5]": {"tested_on": "Bacillus subtilis var niger 9372", "experiment": "Pressure vessel sterilization of contaminated stainless steel coupons with NO gas", "type": "cell-based", "settings": "five minute sterilization cycle; pure NO at atmospheric pressure; stainless steel coupons dipped in at least 10^8 CFU/ml", "source_text": "as §1, §2, §3"}, "[6]": {"tested_on": "Staphylococcus epidermides (str 21977)", "experiment": "Pressure vessel sterilization of contaminated stainless steel coupons with NO gas", "type": "cell-based", "settings": "five minute sterilization cycle; pure NO at atmospheric pressure; stainless steel coupons dipped in at least 10^8 CFU/ml", "source_text": "as §1, §2, §3"}, "[7]": {"tested_on": "Staphylococcus epidermides", "experiment": "Portable system (blood storage container) sterilization of stainless steel coupons", "type": "cell-based", "settings": "fifteen minute sterilization cycle; NO from acidified diazeniumdiolate; 1 ATM; stainless steel coupon, at least 10^8 CFU/ml", "source_text": "(§4) Similar to Example 1, a portable system is devised using blood storage containers and other laboratory items. In this construct, a blood storage container (Nexell, Irvine, Calif.; Lifecell PL732 plastic tissue culture flask) serves as the sterilization chamber. It has multiple ports, is easily attached to tubing or other chambers, and is easily cut and heat sealed for insertion and removal of contaminated/sterilized samples. The heat seal is strong and holds well at pressure, even though 1 ATM of pressure is used experimentally. Two 60 ml syringes connected to each other and a line of tubing by a three-way stopcock are employed to mix acidic buffer in one syringe with NO-releasing diazeniumdiolate in the other syringe. The tubing is connected to the blood container/sterilization chamber.\n(§5) The stopcock is turned so that the acidic buffer can be added to the syringe containing the diazeniumdiolate. The valve is immediately closed to the buffer syringe and opened to the sterilization chamber. The 300 cc sterilization chamber inflates in about 15 seconds. Experiments are performed as described above, except that the devised system is used instead of the pressure vessel.\n(§6) The test organisms are cultured overnight in BHI. The cultures contained at least 10^8 CFU/ml (100-fold greater than FDA testing guidelines) based on standardized ABS595 curves for each organism. Stainless steel coupons, 3×1 cm, are dipped in the cultures, and either dried in ambient air first or placed in the pressure vessel still wet from the culture dip. The dried samples are dipped in sterile BHI media before being placed in the sterilization chamber."}, "Serratia marcesens": {"tested_on": "Serratia marcesens", "experiment": "Portable system (blood storage container) sterilization of stainless steel coupons", "type": "cell-based", "settings": "fifteen minute sterilization cycle; NO from acidified diazeniumdiolate; 1 ATM; stainless steel coupon, at least 10^8 CFU/ml", "source_text": "as §4, §5, §6"}, "[8]": {"tested_on": "Bacillus subtilis (spore)", "experiment": "Portable system (blood storage container) sterilization of stainless steel coupons", "type": "cell-based", "settings": "fifteen minute sterilization cycle; NO from acidified diazeniumdiolate; 1 ATM; stainless steel coupon, at least 10^8 CFU/ml", "source_text": "as §4, §5, §6"}, "[9]": {"tested_on": "sporulated B. subtilis var. niger", "experiment": "Sterilization with varying quantities of delivered nitric oxide, contaminated stainless steel strips", "type": "cell-based", "settings": "5%, 2.5% and 1% NO in air, five minutes, culture in LB 48 hours then plating", "source_text": "A blood storage container (Nexell, Irvine, Calif.; Lifecell PL732 plastic tissue culture flask) is used as the sterilization chamber. Strips of stainless steel are dipped in 10^6 CFU/ml sporulated B. subtilis var. niger (as determined by ABS595 standardization curves). The strips are allowed to air dry, placed in the sterilization chamber, and then the sterilization chamber is heat sealed. The sterilization chamber is evacuated using a syringe and controlling air flow with the sterilization chamber valves. A known quantity of air is added to the vessel using a graduated syringe.\nAn NO-generating donor compound is placed in a 7 cc gas generation chamber. The gas generation chamber is attached to the storage container through luer lock connectors. The liquid activator, 3.0N HCl is added to the gas generation chamber and the generated gas is allowed to flow into the sterilization chamber. After a brief generation period, the gas is sealed in the sterilization chamber using a compression valve.\nVarying quantities of NO gas, namely 10%, 5%, 2.5% and 1% NO, are tested for their efficacy in the sterilization chamber. The quantity (%) of NO gas generated and added to the sterilization chamber is calculated from the number of moles of NO required to be generated to result in the desired percentage of NO. […]"}, "B. subtilis (vegetative)": {"tested_on": "B. subtilis (vegetative)", "experiment": "Portable system (blood storage container) sterilization of stainless steel coupons", "type": "cell-based, Bacillus subtilis", "settings": "fifteen minute sterilization cycle; NO from acidified diazeniumdiolate; 1 ATM; stainless steel coupon, at least 10^8 CFU/ml", "source_text": "as §4, §5\nThe test organisms are cultured overnight in BHI. The cultures contained at least 10^8 CFU/ml (100-fold greater than FDA testing guidelines) based on standardized ABS595 curves for each organism. […]"}, "cocktail of bacteria": {"tested_on": "cocktail of bacteria", "experiment": "Humidity effects: sterilization of sealed and unsealed dry stainless steel coupons", "type": "cell-based", "settings": "15 min sterilization cycle at 1 ATM, 2/2 trials", "experimental": "Several humidifying paradigms and the ability to sterilize through a gas sterilization seal pouch is tested. A cocktail of bacteria is used, all grown to about 10^8 CFU/ml and mixed in equal volume. Stainless steel coupons are dipped, allowed to dry, and subject to one of three methods. Method A samples are wrapped in a moist Kimwipe, Method B samples are left dry, and Method C samples are sealed, dry, in a V. Mueller™ Dual Peel Seal Pouch, designed for gas and autoclave sterilizations. Samples from methods B and C are placed in the sterilization chamber with a moist Kimwipe, which is placed in the chamber so as to insure maximal separation of the Kimwipe and the sample to be sterilized. The chamber is re-sealed carefully so as not to disturb the positioning of the samples relative to the Kimwipe. The samples are subject to a 15 min sterilization cycle at 1 ATM, removed under sterile conditions, and the samples are placed in BHI media as described above. Control samples are handled identically except for the chamber being gassed with […]. All controls reached greater than […] total CFU/ml in 24 hrs as determined by ABS595 standardization curves."}},
  "data": [
    {"compound": "[N]=O", "note": "[NO, nitric oxide]", "values": [
      {"measurement": "Killed (trials)", "setting": "[1]; Disposable Needle 30 ga.", "value": "2/2 Killed"},
      {"measurement": "Killed (trials)", "setting": "[1]; Polyethylene Tubing 1.77 mm ID", "value": "2/2 Killed"},
      {"measurement": "Killed (trials)", "setting": "[1]; Teflon Tubing 1/8' ID", "value": "2/2 Killed"},
      {"measurement": "Killed (trials)", "setting": "[1]; Vinyl Tubing 0.5 mm ID", "value": "2/2 Killed"},
      {"measurement": "Killed (trials with no bacterial growth / trials)", "setting": "[2]", "value": "3/3 Killed"},
      {"measurement": "Killed (trials with no bacterial growth / trials)", "setting": "[3]", "value": "3/3 Killed"},
      {"measurement": "Killed (trials with no bacterial growth / trials)", "setting": "[4]", "value": "3/3 Killed"},
      {"measurement": "Killed (trials with no bacterial growth / trials)", "setting": "[5]", "value": "3/3 Killed"},
      {"measurement": "Killed (trials with no bacterial growth / trials)", "setting": "[6]", "value": "3/3 Killed"},
      {"measurement": "Killed (trials)", "setting": "[7]", "value": "3/3 Killed"},
      {"measurement": "Killed (trials)", "setting": "Serratia marcesens", "value": "3/3 Killed"},
      {"measurement": "Killed (trials)", "setting": "[8]", "value": "2/2 Killed"},
      {"measurement": "killing of 10^6 CFU/ml sporulated B. subtilis var. niger", "setting": "[9]", "value": "effective at killing"},
      {"measurement": "Killed (trials)", "setting": "B. subtilis (vegetative)", "value": "2/2 Killed"},
      {"measurement": "Killed (trials)", "setting": "cocktail of bacteria; Method A Moist Kimwipe Wrap", "value": "Killed"},
      {"measurement": "Killed (trials)", "setting": "cocktail of bacteria; Method B Dry sample, moist Kimwipe apart in chamber", "value": "Killed"},
      {"measurement": "Killed (trials)", "setting": "cocktail of bacteria; Method C Dry, Sealed Sample in Dual Peel Seal Pouch, moist Kimwipe apart in chamber", "value": "Killed"}
    ]}
  ]
}
